Reference: patent publication US7407969B2, “Respiratory syncytial virus replication inhibitors” (Janssen Pharmaceutica, N.V., priority 1999, dated 2008)
Read-outs that look alike come from different tables or passages of the source.

Legend:
[1] = Cytotoxicity (CC50) in mock-infected HeLa cells, tetrazolium (MTT) colorimetric assay; type: cell-based; details: human
Procedure: (§1) The percent protection against cytopathology caused by viruses (antiviral activity or IC50) achieved by tested compounds and their cytotoxicity (CC50) were both calculated from dose-response curves.
Automated tetrazolium-based […] assays were used for determination of IC50 and CC50 of test compounds. Flat-bottom, 96-well plastic microtiter trays were filled with 180 μl of Eagle's Basal Medium, supplemented with 5% FCS (0% for FLU) and 20 mM Herpes buffer. Subsequently, stock solutions (7.8×final test concentration) of compounds were added in 45 μl volumes to a series of triplicate wells so as to allow simultaneous evaluation of their effects on virus- and mock-infected cells. Five five-fold dilutions were made directly in the microtiter trays using a robot system. Untreated virus controls, and HeLa cell controls were included in each test. Approximately 100 TCID50 Respiratory Syncytial Virus was added to two of the three rows in a volume of 50 μl. The same volume of medium was added to the third row to measure the cytotoxicity of the compounds at the same concentrations as those used to measure the antiviral activity. After two hours of incubation, a suspension (4×10^5 cells/ml) of HeLa cells was added to all wells in a volume of 50 μl. The cultures were incubated at 37° C. in a 5% CO2 atmosphere. Seven days after infection the cytotoxicity and the antiviral activity was examined spectrophotometrically. To each well of the microtiter tray, 25 μl of a solution of MIT (3-(4,5-dimethylthiazol-2-yl)-2,5-diphenyltetrazolium bromide) was added. The trays were further incubated at 37° C. for 2 hours, after which the medium was removed from each cup. Solubilization of the formazan crystals was achieved by adding 100 μl 2-propanol. […] Finally, the absorbances were read in an eight-channel computer-controlled photometer (Multiskan MCC, Flow Laboratories) at two wavelengths (540 and 690 nm). The absorbance measured at 690 nm was automatically subtracted from the absorbance at 540 nm, so as to eliminate the effects of non-specific absorption.

[2] = test system: Respiratory Syncytial Virus; assay: microbe, parasite or virus in culture; type: cell-based; details: for SI: selectivity index = CC50 divided by IC50
Procedure: as §1
Automated tetrazolium-based […] assays were used for determination of IC50 and CC50 of test compounds. Flat-bottom, 96-well plastic microtiter trays were filled with 180 μl of Eagle's Basal Medium, supplemented with 5% FCS (0% for FLU) and 20 mM Herpes buffer. Subsequently, stock solutions (7.8×final test concentration) of compounds were added in 45 μl volumes to a series of triplicate wells so as to allow simultaneous evaluation of their effects on virus- and mock-infected cells. Five five-fold dilutions were made directly in the microtiter trays using a robot system. Untreated virus controls, and HeLa cell controls were included in each test. Approximately 100 TCID50 Respiratory Syncytial Virus was added to two of the three rows in a volume of 50 μl. The same volume of medium was added to the third row to measure the cytotoxicity of the compounds at the same concentrations as those used to measure the antiviral activity. After two hours of incubation, a suspension (4×10^5 cells/ml) of HeLa cells was added to all wells in a volume of 50 μl. The cultures were incubated at 37° C. in a 5% CO2 atmosphere. Seven days after infection the cytotoxicity and the antiviral activity was examined spectrophotometrically. To each well of the microtiter tray, 25 μl of a solution of MIT (3-(4,5-dimethylthiazol-2-yl)-2,5-diphenyltetrazolium bromide) was added. The trays were further incubated at 37° C. for 2 hours, after which the medium was removed from each cup. Solubilization of the formazan crystals was achieved by adding 100 μl 2-propanol. Complete dissolution of the formazan crystals were obtained after the trays have been placed on a plate shaker for 10 min. Finally, the absorbances were read in an eight-channel computer-controlled photometer (Multiskan MCC, Flow Laboratories) at two wavelengths (540 and 690 nm). The absorbance measured at 690 nm was automatically subtracted from the absorbance at 540 nm, so as to eliminate the effects of non-specific absorption.

[3] = human respiratory syncytial virus, HeLa, 168 h

Compound	melting point [°C]	SI [2]	other results
NCCN1CCC(Nc2nc3ccccc3n2Cc2ccnc3ccccc23)CC1	196		
CCOCCOC(c1cccc2cccnc12)n1c(NC2CCN(CC(N)C(C)C)CC2)nc2ccccc21 (racemic) [Compound 31, (±)-N-[1-(2-amino-3-methylbutyl)-4-piperidinyl]-1-[(2-ethoxyethoxy)-8-quinolinyl-methyl]-1H-benzimidazol-2-amine]		15849	CC50 at 7 days [1]: 12.7 µM; IC50 [2, 3]: 0.0008 µM
CC(C)C(N)CN1CCC(Nc2nc3ccccc3n2C2CCCc3ccc(Br)nc32)CC1.Cl.Cl.Cl.O.O.O (racemic) [Compound 56, (±)-N-[1-(2-amino-3-methylbutyl)-4-piperidinyl]-1-(2-bromo-5,6,7,8-tetrahydro-8-quinolinyl)-1H-benzimidazol-2-amine trihydrochloride trihydrate]		7943	CC50 at 7 days ([1]; cytotoxicity in mock-infected HeLa cells, 7 days, MTT, read-out: CC50): 12.7 µM; IC50 [2, 3]: 0.0016 µM
(±)-N-[1-(2-amino-3-methylbutyl)-4-piperidinyl]-3-(quinolinylmethyl)-3H-imidazo[4,5-b]pyridin-2-amine [Compound 42]		>25119	IC50 ([2]; antiviral activity against Respiratory Syncytial Virus, HeLa cells, 7 days after infection, MTT, read-out: IC50): 0.0004 µM

Second part, led by results:

melting point [°C]	Compound	SI [2]	other results
202	CCOC(c1cccc2cccnc12)n1c(NC2CCN(C(CN)C(C)C)CC2)nc2ccccc21 (racemic)		
230	CC(C)C(N)CN1CCC(Nc2nc3ccccc3n2CC2CCc3ccccc3N2)CC1.Cl.Cl.Cl.Cl.O (racemic) (hydrate or solvate)		
135	CC(C)C(N)CN1CCC(Nc2nc3ccccc3n2Cc2ccc3ccccc3n2)CC1 (racemic) [Compound 6, (±)-N-[1-(2-amino-3-methylbutyl)-4-piperidinyl]-1-(2-quinolinylmethyl)-1H-benzimidazol-2-amine]	794	CC50 at 7 days [1]: 10 µM; IC50 ([2]; human respiratory syncytial virus, 168 h, antiviral activity against Respiratory Syncytial Virus, HeLa cells, 7 days after infection, MTT, read-out: IC50): 0.0126 µM
